How the values were obtained:
QKF-KAT6B = biological target: T1, QKF-KAT6B (Homo sapiens, UniProt Q8WYB5); test: Acetyltransferase biochemical assay (AlphaScreen), KAT6B; details: 8 nM KAT6B, 1 μM AcCoA, 100 nM histone H3.1
T1 construct: purchased SignalChem K315-381BG
Excerpt: KAT6B was obtained from SignalChem, catalog ID: K315-381BG

MOF-KAT8 = biological target: T2, MOF-KAT8 (Homo sapiens, UniProt Q9H7Z6); test: biochemical
T2 sequence (Q9H7Z6 with tags, fused parts or gaps): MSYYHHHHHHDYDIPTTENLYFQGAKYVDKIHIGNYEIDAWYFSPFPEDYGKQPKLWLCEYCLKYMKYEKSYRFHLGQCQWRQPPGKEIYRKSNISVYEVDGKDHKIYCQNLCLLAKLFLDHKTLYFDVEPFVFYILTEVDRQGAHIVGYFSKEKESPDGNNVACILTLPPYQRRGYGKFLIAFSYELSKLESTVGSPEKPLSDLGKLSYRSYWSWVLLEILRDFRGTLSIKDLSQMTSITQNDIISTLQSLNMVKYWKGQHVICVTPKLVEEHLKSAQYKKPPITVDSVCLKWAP

[1] = tested on: acetylation of the histone H3 Lysine 14 marker in U2OS cells; test: Histone H3 Lysine 14 Acetylation Biomarker Assay; type: cell-based; details: Homo sapiens, serum free medium, 24 hours incubation, read-out: IC50, inhibition of histone H3 Lysine 14 acetylation
Experimental: Compounds were tested for their ability to inhibit acetylation of the histone H3 Lysine 14 marker in the following assay:
The cell line U2OS was seeded at a density of 3,000 cells per well in 384-well optical quality tissue culture plates in RPMI medium supplemented with 10% foetal bovine serum and 10 mM Hepes. The cells were allowed to adhere for 24 hours under standard culture conditions (37 degree Celsius, 5% CO2). At the end of this period the cells were washed with serum free medium. […] After incubation for 24 hours, the cells were fixed with 4% formaldehyde in PBS for 15 minutes at room temperature, washed with phosphate buffer saline and blocked with blocking buffer containing 0.2% TritonX100 and 2% BSA. Anti-H3K14ac specific antibody (Cell Signalling Technologies) in blocking buffer was added and incubated overnight at 4 degree Celsius. After washing, a secondary antibody labelled with AlexaFluor 488 dye (ThermoFisher) and Hoechst 33342 (1 μg/mL, Life Technologies) were added for 2 hours incubation at room temperature. Plates were washed and read on a PerkinElmer Opera HCS high content imaging platform. Using a Columbus image analysis pipeline, individual nuclei were located by Hoechst 33342 stain and the acetylation level was calculated from the AlexaFluor 488-related intensity in the same area.

[2] = tested on: acetylation of the histone H3K23 marker in U2OS cells; test: Histone H3 Lysine 23 Acetylation Biomarker Assay; type: cell-based; details: Homo sapiens, 24 hours incubation, read-out: IC50, inhibition of histone H3K23 acetylation
Experimental: Compounds were tested for their ability to inhibit acetylation of the histone H3K23 marker in the following assay:
The cell line U2OS was seeded at a density of 9,000 cells per well in 96 well optical quality tissue culture plates in RPMI medium and 10% foetal bovine serum, and allowed to adhere for 24 hours under standard culture conditions (37 degree Celsius, 5% CO2). At the end of this period the medium was aspirated. […] After incubation for 24 hours, the cells were fixed with 3.7% formaldehyde in PBS for 20 minutes at room temperature, washed (5×5 minutes) with phosphate buffer saline containing 0.1% Tween 20 and blocked with Odyssey blocking buffer (LI-COR, Lincoln, Nebr.) containing 0.1% TritonX100. Anti-H3K23ac specific antibody (Abcam ab177275) in Odyssey blocking buffer containing 0.1% Tween 20 was added and incubated for 16 hours at 4 degree Celsius. After washing (as above), a secondary antibody labelled with Alexa647 dye (LifeTechnologies) and Hoechst 33342 (1 μg/mL, SigmaAldrich) were added for 1 hour incubation. Plates were washed as previously and read on a PerkinElmer Phenix high content imaging platform. Using a Columbus image analysis pipeline, individual nuclei were located by Hoechst 33342 stain and the acetylation level was calculated from the Alexa647-related intensity in the same area.

MOZ-KAT6A = MOZ-KAT6A (Homo sapiens, UniProt Q92794, A567V); test: Acetyltransferase biochemical assay (AlphaScreen), KAT6A
MOZ-KAT6A, sequence (Q92794 with tags, fused parts or gaps A567V): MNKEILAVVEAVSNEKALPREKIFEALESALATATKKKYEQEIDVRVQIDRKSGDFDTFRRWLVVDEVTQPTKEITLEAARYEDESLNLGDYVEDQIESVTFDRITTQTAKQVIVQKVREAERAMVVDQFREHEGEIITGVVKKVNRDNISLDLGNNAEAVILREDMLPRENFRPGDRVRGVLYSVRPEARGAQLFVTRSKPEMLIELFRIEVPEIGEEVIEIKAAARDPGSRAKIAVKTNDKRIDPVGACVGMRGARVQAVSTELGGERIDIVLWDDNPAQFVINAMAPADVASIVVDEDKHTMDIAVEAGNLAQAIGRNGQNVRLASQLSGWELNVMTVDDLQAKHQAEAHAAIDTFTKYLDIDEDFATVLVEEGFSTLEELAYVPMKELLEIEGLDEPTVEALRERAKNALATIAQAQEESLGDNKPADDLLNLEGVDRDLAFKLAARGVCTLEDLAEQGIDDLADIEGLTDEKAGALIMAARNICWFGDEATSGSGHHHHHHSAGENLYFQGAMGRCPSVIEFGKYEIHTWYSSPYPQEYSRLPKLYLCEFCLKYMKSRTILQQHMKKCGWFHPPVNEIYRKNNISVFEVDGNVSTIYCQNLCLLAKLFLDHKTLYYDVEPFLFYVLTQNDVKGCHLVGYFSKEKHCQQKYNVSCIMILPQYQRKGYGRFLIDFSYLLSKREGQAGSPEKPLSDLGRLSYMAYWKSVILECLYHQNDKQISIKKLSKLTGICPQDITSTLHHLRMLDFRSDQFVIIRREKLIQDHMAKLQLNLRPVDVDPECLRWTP

TIP60-KAT5 = TIP60-KAT5 (Homo sapiens, UniProt Q92993); test: Acetyltransferase biochemical assay (AlphaScreen), KAT5
TIP60-KAT5, sequence (Q92993 with tags, fused parts or gaps isoform Q92993-2): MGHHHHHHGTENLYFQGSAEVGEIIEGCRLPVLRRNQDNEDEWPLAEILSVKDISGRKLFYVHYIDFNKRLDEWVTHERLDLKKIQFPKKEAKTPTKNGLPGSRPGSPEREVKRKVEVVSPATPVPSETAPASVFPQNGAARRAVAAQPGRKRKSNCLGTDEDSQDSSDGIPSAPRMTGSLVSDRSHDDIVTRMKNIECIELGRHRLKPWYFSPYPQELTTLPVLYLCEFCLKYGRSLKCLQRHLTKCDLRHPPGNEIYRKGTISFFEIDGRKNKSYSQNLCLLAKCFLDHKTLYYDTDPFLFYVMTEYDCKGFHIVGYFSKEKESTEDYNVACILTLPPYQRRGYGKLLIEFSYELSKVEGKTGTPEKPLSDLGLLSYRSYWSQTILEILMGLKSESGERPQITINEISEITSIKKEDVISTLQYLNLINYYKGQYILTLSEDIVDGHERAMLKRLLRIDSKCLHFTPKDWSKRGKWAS

HBO-KAT7 = HBO-KAT7 (Homo sapiens, UniProt O95251); test: Acetyltransferase biochemical assay (AlphaScreen), KAT7
HBO-KAT7, sequence (O95251 with tags, fused parts or gaps): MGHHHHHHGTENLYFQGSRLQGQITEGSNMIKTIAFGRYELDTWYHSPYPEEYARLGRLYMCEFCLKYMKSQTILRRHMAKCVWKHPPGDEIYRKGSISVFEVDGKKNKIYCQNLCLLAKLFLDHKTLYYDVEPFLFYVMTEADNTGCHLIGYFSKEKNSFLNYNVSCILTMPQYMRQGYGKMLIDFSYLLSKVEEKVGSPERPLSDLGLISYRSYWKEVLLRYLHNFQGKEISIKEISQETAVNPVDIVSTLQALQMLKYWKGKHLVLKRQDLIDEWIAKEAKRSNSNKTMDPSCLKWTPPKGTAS

[3] = tested on: histone H2A.Z Lysine 7 acetylation marker in U2OS cells; test: H2A.Z Lysine 7 Acetylation Biomarker Assay; type: cell-based; details: Homo sapiens, serum free medium, 24 hours incubation, read-out: IC50, inhibition of histone H2A.Z Lysine 7 acetylation
Experimental: Compounds were tested for their ability to inhibit the histone H2A.Z Lysine 7 acetylation marker in the following assay:
The cell line U2OS was seeded at a density of 3,000 cells per well in 384-well optical quality tissue culture plates in RPMI medium supplemented with 10% foetal bovine serum and 10 mM Hepes. The cells were allowed to adhere for 24 hours under standard culture conditions (37 degree Celsius, 5% CO2). At the end of this period the cells were washed with serum free medium. […] 2018, at 30 μM concentration. After incubation for 24 hours, the cells were fixed with 4% formaldehyde in PBS for 15 minutes at room temperature, washed with phosphate buffer saline and blocked with blocking buffer containing 0.2% TritonX100 and 2% BSA. Anti-H2A.ZK7ac specific antibody (Abcam) in blocking buffer was added and incubated overnight at 4 degree Celsius. After washing, a secondary antibody labelled with AlexaFluor 488 dye (ThermoFisher) and Hoechst 33342 (1 μg/mL, Life Technologies) were added for 2 hours incubation at room temperature. Plates were washed and read on a PerkinElmer Opera HCS high content imaging platform. Using a Columbus image analysis pipeline, individual nuclei were located by Hoechst 33342 stain and the acetylation level was calculated from the AlexaFluor 488-related intensity in the same area.

T1 sequence (Q8WYB5 whole entry): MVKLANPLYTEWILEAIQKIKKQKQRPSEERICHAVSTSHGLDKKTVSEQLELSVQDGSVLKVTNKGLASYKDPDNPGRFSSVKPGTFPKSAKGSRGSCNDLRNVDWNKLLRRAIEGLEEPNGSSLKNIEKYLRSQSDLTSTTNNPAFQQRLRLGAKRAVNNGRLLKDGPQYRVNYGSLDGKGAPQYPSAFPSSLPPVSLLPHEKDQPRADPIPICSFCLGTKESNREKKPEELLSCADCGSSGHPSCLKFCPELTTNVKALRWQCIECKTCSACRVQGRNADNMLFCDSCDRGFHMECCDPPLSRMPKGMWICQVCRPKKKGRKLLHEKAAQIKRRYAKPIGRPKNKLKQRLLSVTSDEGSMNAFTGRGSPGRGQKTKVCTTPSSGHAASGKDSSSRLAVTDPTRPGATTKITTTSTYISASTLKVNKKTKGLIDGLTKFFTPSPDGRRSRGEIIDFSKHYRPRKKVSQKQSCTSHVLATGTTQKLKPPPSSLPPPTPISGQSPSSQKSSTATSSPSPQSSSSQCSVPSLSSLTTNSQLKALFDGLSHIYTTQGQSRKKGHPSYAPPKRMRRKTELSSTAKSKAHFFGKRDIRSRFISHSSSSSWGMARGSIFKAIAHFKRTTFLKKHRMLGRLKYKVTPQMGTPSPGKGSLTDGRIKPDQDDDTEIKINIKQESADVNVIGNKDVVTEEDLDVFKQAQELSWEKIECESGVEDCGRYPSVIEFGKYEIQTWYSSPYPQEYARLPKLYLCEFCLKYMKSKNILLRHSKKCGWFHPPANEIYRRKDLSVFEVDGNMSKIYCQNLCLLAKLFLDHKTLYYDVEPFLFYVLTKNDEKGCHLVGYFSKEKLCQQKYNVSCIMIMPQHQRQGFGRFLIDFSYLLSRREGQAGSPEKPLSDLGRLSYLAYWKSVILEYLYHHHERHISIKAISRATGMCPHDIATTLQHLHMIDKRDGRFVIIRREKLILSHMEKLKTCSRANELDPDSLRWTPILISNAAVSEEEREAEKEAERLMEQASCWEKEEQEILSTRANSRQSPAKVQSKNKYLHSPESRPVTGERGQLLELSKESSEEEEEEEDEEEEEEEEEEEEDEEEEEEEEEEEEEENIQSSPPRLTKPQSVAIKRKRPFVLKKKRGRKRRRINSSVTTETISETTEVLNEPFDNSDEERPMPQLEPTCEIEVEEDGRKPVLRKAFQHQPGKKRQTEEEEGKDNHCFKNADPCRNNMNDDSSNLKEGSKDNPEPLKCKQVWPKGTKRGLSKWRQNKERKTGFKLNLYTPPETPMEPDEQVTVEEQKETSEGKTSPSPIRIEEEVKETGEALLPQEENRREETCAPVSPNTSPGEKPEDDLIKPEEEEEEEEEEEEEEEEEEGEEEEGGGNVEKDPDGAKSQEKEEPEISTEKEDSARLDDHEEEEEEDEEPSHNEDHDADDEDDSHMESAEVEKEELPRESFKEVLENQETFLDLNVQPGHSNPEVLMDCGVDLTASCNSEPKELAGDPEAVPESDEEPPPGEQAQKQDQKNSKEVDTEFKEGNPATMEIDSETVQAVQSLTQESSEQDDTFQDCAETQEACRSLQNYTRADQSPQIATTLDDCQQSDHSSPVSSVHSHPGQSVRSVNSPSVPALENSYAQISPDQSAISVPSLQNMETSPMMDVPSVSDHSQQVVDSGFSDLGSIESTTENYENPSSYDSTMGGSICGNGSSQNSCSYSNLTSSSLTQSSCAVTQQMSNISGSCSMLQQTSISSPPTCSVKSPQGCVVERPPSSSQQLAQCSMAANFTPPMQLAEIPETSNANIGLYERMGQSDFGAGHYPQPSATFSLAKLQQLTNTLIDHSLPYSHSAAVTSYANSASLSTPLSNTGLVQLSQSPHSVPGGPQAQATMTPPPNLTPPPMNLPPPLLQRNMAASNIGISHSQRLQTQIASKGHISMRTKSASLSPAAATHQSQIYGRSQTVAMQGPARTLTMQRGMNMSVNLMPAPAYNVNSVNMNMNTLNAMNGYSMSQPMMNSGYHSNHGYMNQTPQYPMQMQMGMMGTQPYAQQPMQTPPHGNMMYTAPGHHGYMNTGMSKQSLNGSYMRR

Row | Structure (SMILES) | IC50 (QKF-KAT6B) [nM] | IC50 (MOF-KAT8) [nM] | IC50 [1] [nM] | IC50 [2] [nM] | IC50 (MOZ-KAT6A) [nM] | IC50 (TIP60-KAT5) [nM] | IC50 (HBO-KAT7) [nM] | IC50 [3] [nM]
1 | COc1cccc2onc(NS(=O)(=O)c3cccc4cc(C)cnc34)c12 [Example 73, N-(4-methoxybenzo[d]isoxazol-3-yl)-3-methyl quinoline-8-sulfonamide] | 4050 | 3460 | 12500 | > 10000 | 4550 | 2160 | 508 | 36700
2 | COc1cc(-c2ccccc2)cc(OC)c1S(=O)(=O)Nc1noc2cccc(OC)c12 [Example 95, 3,5-Dimethoxy-N-(4-methoxybenzo[d]isoxazol-3-yl)-[1,1-biphenyl]-4-sulfonamide] | 1640 | 6450 | 9090 | > 10000 | 430 | 14000 | 754 | > 40000
3 | COc1cccc(OC)c1S(=O)(=O)Nc1noc2cc(-c3ncco3)ccc12 [Example 147, 2,6-Dimethoxy-N-(6-(oxazol-2-yl)benzo[d]isoxazol-3-yl)benzenesulfonamide] | > 125000 |  | > 40000 | > 10000 | 93600 | > 125000 | > 125000 | > 40000
4 | COCc1cc(OC)c2c(NS(=O)(=O)c3ccc(OC)c4cccnc34)noc2c1 [Example 162, 5-methoxy-N-(4-methoxy-6-(methoxymethyl)benzo[d]isoxazol-3-yl)quinoline-8-sulfonamide] | 180 | 10600 | 1530 | 144 | 147 | 14000 | 969 | 29500
5 | COCc1cc2onc(NS(=O)(=O)c3ccc(OC)cc3OC)c2cc1C [Example 166, 2,4-dimethoxy-N-(6-(methoxymethyl)-5-methylbenzo[d]isoxazol-3-yl)benzenesulfonamide] | 227 | 2920 | 3690 | 398 | 123 | 3090 | 328 | 33300
6 | CCOCc1cc(OC)c2c(NS(=O)(=O)c3c(OC)cccc3OC)noc2c1 [Example 172] | 42 |  | 1450 | 14 | 37 | 9070 | 426 | 29200
7 | COCc1cc(OC)c2c(NS(=O)(=O)c3c(OC)cccc3OC)noc2c1 [Example 173, 2,6-Dimethoxy-N-(4-methoxy-6-(methoxymethyl)benzo[d]isoxazol-3-yl)benzenesulfonamide] | 40 | 3520 | 533 | 20 | 15 | 4050 | 169 | 26200
8 | COc1cccc(OC)c1S(=O)(=O)Nc1noc2cc(-c3ccccc3)cc(OC)c12 [Example 174, 2,6-Dimethoxy-N-(4-methoxy-6-phenylbenzo[d]isoxazol-3-yl)benzenesulfonamide] | 18 |  | 68 | 17 | 13 | 1830 | 31 | 1540
9 | COc1ccccc1-c1cc(OC)c2c(NS(=O)(=O)c3c(OC)cccc3OC)noc2c1 [Example 176, 2,6-Dimethoxy-N-(4-methoxy-6-(2-methoxyphenyl)benzo[d]isoxazol-3-yl)benzenesulfonamide] | 121 |  | 1070 | 685 | 30 | 5670 | 138 | 7610
10 | COc1cccc(-c2cc(OC)c3c(NS(=O)(=O)c4c(OC)cccc4OC)noc3c2)c1 [Example 177, 2,6-Dimethoxy-N-(4-methoxy-6-(3-methoxyphenyl)benzo[d]isoxazol-3-yl)benzenesulfonamide] | 92 |  | 135 | 1490 | 127 | 7080 | 21 | 1090
11 | CCc1ccc(OC)c(S(=O)(=O)Nc2noc3c(-c4ccccc4)cccc23)c1 [Example 178, 5-Ethyl-2-methoxy-N-(7-phenylbenzo[d]isoxazol-3-yl)benzenesulfonamide] | 2460 | 770 | 3070 | > 10000 | 1440 | 7540 | 482 | 5590

Reference: patent US12365655B2, “Compounds” (CTXT PTY LTD, priority 2018, dated 2025)
